Data on 1 substance can be found in patent US9765022B2, “Disulfide compounds for delivery of pharmaceutical agents” (Tufts University, priority 2013, dated 2017).

The experiment concerns 4T1-12B breast tumors. Briefly: In vivo cancer treatment, tumor growth inhibition. Also on record: species or system BALB/c mice. The note with it: tail-vein injection every three days, 5.5 mg/kg lipid and 330 μg/kg saporin. The method, then:
Composition 31 (i.e., containing 1-O16B and saporin) and Composition 32 (i.e., containing 1-O18B and saporin) were tested for in vivo inhibiting tumor growth following the procedure described below. More specifically, BALB/c mice bearing 4T1-12B breast tumors were developed from a 4T1-12B cell suspension in DMEM supplemented with 10% FBS at a concentration of 10^7 cells/mL. An aliquot (100 μL) of the cell suspension was injected into the mammary fat pad of 4-6 week-old female BALB/c mice. The mice were sorted into four groups randomly (n=7 for treatment group, n=5 for control groups) seven days after the injection. The mice were injected through tail-vein every three days. For the treatment group, each mouse was injected with 5.5 mg/kg of 1-O16B or 1-O18B and 330 μg/kg of saporin. Tumor volumes were measured every three days.
PBS without 1-O16B, 1-O18B, and saporin was also injected as a control. Comparative studies were also conducted using saporin in PBS without 1-O16B and 1-O18B.

As to saporin, the tumor size entry (Day 16) was “more than 120 mm^3” and the tumor size result (Day 22) is recorded as “more than 250 mm^3”.
